Assay [1] deals with T1, Acetyl-CoA carboxylase 1 (Rattus norvegicus, UniProt P11497). The experiment in a line: Inhibitory concentration against rat heart ACC by the carboxylation of acetyl-CoA with [14C]-HCO3- to form [14C]-malonyl CoA; 18-40 uM.
Assay [2] has as its target T1, Acetyl-CoA carboxylase 1. Nature of the assay: Inhibitory concentration against rat heart ACC by the carboxylation of acetyl-CoA with [14C]HCO3- to form [14C]-malonyl CoA.

The values below come from ChEMBL document CHEMBL1136234, “Cyclohexanedione herbicides are inhibitors of rat heart acetyl-CoA carboxylase” (Bioorg Med Chem Lett, 2003).

Some results are limits rather than exact numbers.

For orientation: IC50 means the concentration needed to halve the response being measured. A higher IC50 goes with weaker potency. Consider `CCC/C(=N\OCC)C1=C(O)CC(C2CCCSC2)CC1=O` (stereo unspecified), for which half-maximal inhibition on Acetyl-CoA carboxylase 1 [1] (IC50) required 40 µM.
Same read-out and setting: as for `CCO/N=C(\CC)C1=C(O)CC(c2c(C)cc(C)cc2C)CC1=O` (stereo unspecified) [TRALKOXYDIM], the figure is 40 µM.
Same read-out and setting: as for `CCSC(C)CC1CC(=O)C(/C(CC)=N/OC/C=C/Cl)=C(O)C1` (stereo unspecified) [CLETHODIM], the figure is 40 µM; as for `CC/C(=N\OC/C=C/Cl)C1=C(O)CC(C2CCOCC2)CC1=O` (stereo unspecified) [TEPRALOXYDIM], 40 µM.
For `C=CCO/N=C(\CCC)C1=C(O)C(C(=O)OC)C(C)(C)CC1=O` (stereo unspecified) [ALLOXYDIM], the IC50 on Acetyl-CoA carboxylase 1 [2] is more than 100 µM.
Regarding `CCC/C(=N\OCC)C1=C(O)CC(CC(C)SCC)CC1=O` (stereo unspecified) [SETHOXYDIM], half-maximal inhibition against Acetyl-CoA carboxylase 1 [1] (IC50) was put at 40 µM.
